In BigSolDB 2.1:

O=C(O)Cc1ccccc1Cl
solubility (mole fraction)
Settings	273.15 K	278.15 K	283.15 K	288.15 K	293.15 K	298.15 K	303.15 K	308.15 K	313.15 K	318.15 K
in 2-butanone	0.254	0.282	0.315	0.351	0.389	0.426	0.462	0.496	0.528	0.567
in acetone	0.209	0.225	0.242	0.261	0.281	0.303	0.326	0.352	0.38	0.412
in acetonitrile	0.0582	0.0738	0.0925	0.114	0.139	0.168	0.199	0.234	0.272	0.314
in cyclohexane	–	–	0.00197	0.00263	0.00346	0.00454	0.00601	0.00799	0.0107	0.0145
in ethyl acetate	0.175	0.193	0.214	0.237	0.258	0.284	0.312	0.342	0.372	0.407
in ethylbenzene	0.0217	0.0278	0.0348	0.0437	0.0542	0.0678	0.0853	0.106	0.132	0.165
in isobutanol	0.15	0.172	0.199	0.226	0.256	0.288	0.322	0.357	0.394	0.433
in isopropanol	0.18	0.206	0.235	0.266	0.298	0.336	0.369	0.407	0.446	0.486
in n-butanol	0.142	0.164	0.19	0.217	0.247	0.28	0.314	0.349	0.387	0.425
in n-propanol	0.16	0.184	0.21	0.237	0.268	0.299	0.332	0.368	0.405	0.446
in toluene	0.0241	0.0307	0.0388	0.0491	0.0617	0.0778	0.0975	0.122	0.153	0.191
in water	0.000141	0.000186	0.000243	0.000311	0.000394	0.000506	0.000645	0.000821	0.00105	0.00134

N=C(Nc1ccccc1)Nc1ccccc1
solubility (mole fraction)
Settings	273.15 K	275.65 K	278.15 K	280.65 K	283.15 K	285.65 K
in acetonitrile	0.00811	0.00911	0.0103	0.011	0.012	0.0131
in ethanol	0.0139	0.0152	0.017	0.0191	0.0192	0.0214
in isobutanol	0.0128	0.0138	0.0142	0.0166	0.0177	0.0183
in n-propanol	0.0152	0.0171	0.0181	0.021	0.0215	0.0241
in toluene	0.00134	0.00149	0.00178	0.00189	0.00219	0.0024
